Measurements taken from paper PMC2477761, “D-glucose Stimulates the Na^+/K^+ Pump in Mouse Pancreatic Islet Cells” (International journal of experimental diabetes research, 2000).

System: T1, Na+/K+ ATPase (islet homogenate, ob/ob mice)
T1 construct: gene Atp1a1
Details: read-out: apparent K 0.5; 135 mM Na+, 20 mM K+, Mg2+, pH 7.4, 37 C, 10 min; deoxycholate-treated homogenate; 1 mM ouabain difference

Km: 500 µM
SMILES: Nc1ncnc2c1ncn2[C@@H]1O[C@H](COP(=O)(O)OP(=O)(O)OP(=O)(O)O)[C@@H](O)[C@H]1O [ATP]
